Laboratory results as given in patent US10314917B2, “Targeted polymeric inflammation-resolving nanoparticles” (The Brigham and Women's Hospital, Inc., priority 2014, dated 2019).
Where no end group is shown, it is not given here.

Tests used:
[1] = tested on: MCP-1 and TNFα; assay: MCP-1 and TNFα production in LPS-activated peritoneal macrophages (ELISA); assay type: cell-based, murine; details: equivalent dose of GW3965
Description: Experiments were conducted to assess the in vitro anti-inflammatory effects of GW3965-containing NPs and their ability to regulate LXR target gene expression such as ABCA1 and SREBP-1c. LPS-activated peritoneal macrophages were treated with the indicated NPs containing equivalent doses of GW3965. The supernatant was collected for ELISA analysis of MCP-1 and TNFα. The cells were collected for RT-qPCR analysis of MCP-1 and TNFα mRNA as described below.
In the next set of experiments, GW3965-containing NPs were evaluated to see if they are able to exert anti-inflammatory effects on macrophages. Isolated murine peritoneal macrophages were first treated with lipopolysaccharide (LPS) to induce the production of pro-inflammatory factors such as MCP-1 and TNFα. The activated macrophages were then treated with an equivalent dose of GW3965 in either solution or NP form. ELISA assay was performed on the culture supernatant to determine the production of MCP-1 and TNFα.

[2] = tested on: atherosclerotic lesion area; assay: Atheroprotective effect in plaque-bearing LDLr−/− mice (lesion area, Oil Red O); assay type: in vivo; details: 8 mg/kg GW3965 daily i.v. for 14 days
Description: To explore the atheroprotective effects of these NPs, plaque-bearing LDLr−/− mice were randomly divided into five groups and treated with the following regimens with equivalent doses of 8 mg/kg entrapped GW3965 via daily intravenous administration for 14 consecutive days: i) empty PLGA-b-PEG NP without GW3965 (control); ii) GW3965 in solution form; iii) CNP; iv) TNPLyP-1; and v) TNPCREKA. The aim of this study was to determine whether GW3965-containing NPs would result in inhibition of atherosclerosis development and whether peptide conjugation would improve the delivery efficacy of GW3965.

[3] = tested on: liver macrophage infiltration; details: during dietary intervention; P<0.01; cited from earlier work
[4] = tested on: zymosan-stimulated PMN infiltration; assay: In vivo murine zymosan-induced peritonitis; design: species or system C57BL/6J mice; details: 100 ng/mouse i.v.; exudates 4 h post zymosan
Description: A model of self-limited peritonitis was used to quantitatively assess resolution in vivo to determine whether the developed NPs containing Ac2-26 are anti-inflammatory and/or pro-resolving (Bannenberg 2005; Schwab 2007). Zymosan A was administered to C57BL/6J mice. In parallel, mice were then given vehicle, empty NPs as control, Ac2-26 in NPs, Scrm Ac2-26 in NPs, Ac2-26 native peptides described in detail below. Equal polymer concentration was loaded in both the NPs and Ac2-26 NPs.
1 ml of zymosan A (100 μg/mouse) in 1 ml of sterile saline was administered to female C57BL/6J mice (6-8 wk old, Charles River Laboratories, Wilmington, Mass., USA) to induce peritonitis (Bannenberg et al. J Immunol 174(7):4345-4355 (2005); Norling, et al. (2011) J Immunol 186(10):5543-5547). […]
For baseline PMN number measurements, mice were euthanized at selected time intervals (4, 12, or 24 hours post zymosan stimulation), with an overdose of isofluorane, following which peritoneal exudates were collected by lavaging with Ca^2+/Mg^2+ free phosphate buffered saline (PBS^−/−, 5 ml). Leukocytes were counted with a hemocytometer.
Peritoneal exudates were harvested 4 h post zymosan initiation, and living cells were quantified using trypan blue exclusion.
Differential cell counts were assessed via flow cytometry using an LSRII flow cytometer. […]

Molecule: O=C(O)Cc1cccc(OCCCN(Cc2cccc(C(F)(F)F)c2Cl)CC(c2ccccc2)c2ccccc2)c1 [GW3965, 3-(3-(2-chloro-3-trifluoromethylbenzyl-2,2diphenylethylamino)proproxy), phenylacetic acid]
- production of MCP-1 and TNFα proteins [1]: substantially suppressed
- reduction in lesion area compared with controls [2]: pronounced reduction

Molecule: CC/C=C\C[C@H](O)/C=C/C=C\C=C\C=C\[C@@H](O)[C@@H](O)C/C=C\CCC(=O)O [RvD1]
- liver macrophage infiltration (change) [3]: −15%

Molecule: Ac2-26 peptide: annexin A1 N-terminal mimetic peptide that acts on the formyl peptide receptor ALX/FPR2 (Ac-AMVSEFLKQAWFIENEEQEYVQTVK; UniProt P04083 2-26, looked up, fragment)
- blockade of zymosan-stimulated PMN infiltration [4]: approximately 30%
